Where two headings read alike, the source gives them in different places.
Legend:
Salmonella TA100 strain [1] = test: Mutation analysis by high-throughput sequencing of total DNA of TA100 strain exposed to mutagen; assay type: cell-based, S. typhimurium
Experimental: (§1) In this Example, the genotoxicity of a mutagen was analyzed by qualitatively and quantitatively analyzing mutation patterns in the genome of an organism exposed to the mutagen according to the analysis method of the present invention. The mutagen used was ethylnitrosourea (ENU, CAS No. 759-73-9). A Salmonella TA100 strain which is available for detection of a base pair substitution mutation and is routinely used in the Ames test was used as the organism to be exposed to the mutagen. The experiment was conducted in 3 independent operations to prepare samples (n=3).
(§2) The exposure to the mutagen was carried out in conformity to the preincubation method of the Ames test (K. Mortelmans et al., Mutat. Res. —Fundam. Mol. Mech. Mutagen., 2000, 455, 29-60). TA100 strain was inoculated to 2 mL of Nutrient Broth No. 2 (manufactured by Oxoid Ltd.) and shake-cultured at 37° C. at 180 rpm for 4 hours to obtain a preculture solution having an O.D. 660 value of 1.0 or more. ENU (54%; manufactured by Sigma-Aldrich Co. LLC) was diluted with dimethyl sulfoxide (DMSO; manufactured by Wako Pure Chemical Industries, Ltd.). One hundred μL of the ENU solution diluted into an appropriate concentration, 500 μL of a 0.1 M phosphate buffer, and 100 μL of the preculture solution were added into a test tube (ENU concentration: 67.5, 135, 270, 405, 540, 810, and 1080 μg/tube), and shake-cultured at 100 rpm for 20 minutes in a water bath of 37° C. For a control group, 100 μL of a solvent (DMSO) was added instead of the ENU solution. After the shake culture for 20 minutes, the test tube containing the culture solution was taken out of the water bath. Fifty μL of the culture solution was added to 2 mL of a nutrient broth solution dispensed in advance, and additionally cultured at 37° C. at 180 rpm for 14 hours. Then, 1 mL of the bacterial suspension was recovered and centrifuged at 7,500 rpm for 5 minutes. The supernatant was removed to recover bacterial cells.
From the bacterial cells obtained in the paragraph 1., total DNA was recovered using DNeasy Blood & Tissue Kit (manufactured by Qiagen N.V.) according to the recommended protocol.
The total DNA solutions recovered in the paragraph 2. from the control group and the ENU treatment groups were sequenced using a next-generation sequencer HiSeq 2500 (manufactured by Illumina, Inc.) according to the standard protocol. In this operation, DNA was fragmented into an average length of approximately […] by ultrasonic treatment. Adaptors were added to both ends of each fragment. The fragments were sequenced at a read length of 2×125 bp. 5.0-Gbp nucleotide sequence information per sample was obtained on average.
The editing of read sequences obtained by the sequencing and mutation analysis were conducted using Cutadapt software, PEAR software, Bowtie 2 software, Samtools software, and a program created using a programming language Python according to the conceptual diagram of analysis flow shown in Schematic diagram 2 in the same way as in Example 1. In this Example, PCR duplicates were removed using Picard tools (broadinstitute.github.io/picard/) after mapping using the Bowtie 2 software.
A reference sequence for the mapping using the Bowtie 2 software was constructed on the basis of the genomic sequence of the S. typhimurium TA100 strain. First, DNA was extracted from the TA100 strain and sequenced using a next-generation sequencer HiSeq 2500 (manufactured by Illumina, Inc.) according to the standard protocol. In this operation, the DNA was fragmented into an average length of approximately 300 bp by ultrasonic treatment. Adaptors were added to both ends of each fragment. The fragments were sequenced at a read length of 2×125 bp. The obtained read sequences were mapped to the genomic sequence of a S. typhimurium LT-2 strain, a pSLT plasmid sequence (GCA000006945.2), and a R46 plasmid sequence (NC_003292.1), followed by mutation detection using Samtools software. […]

Salmonella TA100 strain [2] = assay type: cell-based, S. typhimurium; settings: for The number of revertants: mean and standard deviation of 3 plates
Experimental: as §1, §2
For the Ames test, a bacterial suspension exposed to ENU under the same conditions as above was also prepared. Two mL of top agar (containing 1% NaCl, 1% agar, 0.05 mM histidine and 0.05 mM biotin) warmed to 45° C. was added thereto, and the bacterial cells were suspended by vortex. Then, the suspension was layered over a minimal glucose agar medium (Tesmedia (Registered trademark) AN; manufactured by Oriental Yeast Co., Ltd.). The obtained plate was cultured at 37° C. for 48 hours. Then, observed colonies were counted.
The data was indicated by a mean and standard deviation of measurement values from 3 plates.

[3] = ENU 540 μg/tube, control subtracted

CCN(N=O)C(N)=O [ENU, ethylnitrosourea]
Increased mutation frequencies by sequence context analysis (96 mutation types), C>T mutation (Salmonella TA100 strain [1]; 3-base context, FIG. 7 and FIG. 8): larger increase in mutation frequency was found in a context with a pyrimidine base (C or T) located at 3′ side to the C | Ratio of AT > CG mutation pattern to the whole of increased mutation frequencies (mutation spectrum) (Salmonella TA100 strain [1]; [3]): 2.36% | Ratio of AT > GC mutation pattern to the whole of increased mutation frequencies (mutation spectrum) (Salmonella TA100 strain [1]; [3]): 12.4% | Ratio of AT > TA mutation pattern to the whole of increased mutation frequencies (mutation spectrum) (Salmonella TA100 strain [1]; [3]): 11.5% | Ratio of GC > AT mutation pattern to the whole of increased mutation frequencies (mutation spectrum) (Salmonella TA100 strain [1]; [3]): 73.7% | Increased mutation frequencies of GC base pair mutation patterns (Salmonella TA100 strain [1]; ENU 135, 270, 405 and 540 μg/tube, FIG. 4A): increase in the frequency of GC>AT mutation was found | Increased mutation frequencies of AT base pair mutation patterns (Salmonella TA100 strain [1]; ENU 135, 270, 405 and 540 μg/tube, FIG. 4B): increase in the frequencies of AT>TA and AT>GC mutations was mainly found | The number of revertants (Salmonella TA100 strain [2]; ENU 67.5 μg/plate): 258 ± 2.5 | The number of revertants (Salmonella TA100 strain [2]; ENU 135 μg/plate): 659 ± 113.9 | The number of revertants (Salmonella TA100 strain [2]; ENU 270 μg/plate): 3320 ± 734.4 | The number of revertants (Salmonella TA100 strain [2]; ENU 405 μg/plate): 4994 ± 455.6 | The number of revertants (Salmonella TA100 strain [2]; ENU 540 μg/plate): 5051 ± 173.0 | The number of revertants (Salmonella TA100 strain [2]; ENU 810 μg/plate, growth inhibition on plate): 3102 ± 883.0 | The number of revertants (Salmonella TA100 strain [2]; ENU 1080 μg/plate, growth inhibition on plate): 503 ± 190.9 | Change in the number of revertants by exposure (Salmonella TA100 strain [2]; ENU 67.5 to 1080 μg/plate against DMSO): Increase in the number of revertants was found

— patent US20190259469A1, “Method for Evaluating Genotoxicity of Substance” (priority 2017, published 2019)
